EC50 data for 28 compounds are collected here from US11571423B2, “Small molecule modulators of human sting” (Curadev Pharma Limited, priority 2017, dated 2023).

pEC50: −log10 of the molar value.

hSTING(R232), sequence (Q86WV6 whole entry H232R): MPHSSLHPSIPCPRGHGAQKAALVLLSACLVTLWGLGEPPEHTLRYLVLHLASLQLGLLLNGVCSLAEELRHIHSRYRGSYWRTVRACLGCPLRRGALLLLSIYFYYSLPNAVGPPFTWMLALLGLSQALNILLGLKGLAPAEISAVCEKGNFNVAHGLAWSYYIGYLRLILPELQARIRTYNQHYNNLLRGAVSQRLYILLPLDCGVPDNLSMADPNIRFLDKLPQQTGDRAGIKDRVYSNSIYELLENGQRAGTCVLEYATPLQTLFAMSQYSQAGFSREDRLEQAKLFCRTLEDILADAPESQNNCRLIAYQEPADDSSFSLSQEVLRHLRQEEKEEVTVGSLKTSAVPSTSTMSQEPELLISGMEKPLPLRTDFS

The test concerns the target hSTING(R232) (Homo sapiens, UniProt Q86WV6, H232R). Put plainly: Luciferase reporter assay in HEK293T-hSTING-Luciferase cells, R232 (wild type) human STING. It counts as cell-based. The note with it: 20 hr stimulation, read-out: R232 human activity (EC50 range). An excerpt: Stable Cell Line Generation • a) Stable STING expressing cells—Stable HEK293T STING-expressing cell lines were generated using plasmids purchased from Invivogen, CA, USA, that contain STING cDNA cloned into the pUNO-1 vector under hEF1-HTLV promoter and containing the Blasticidin selection cassette. The plasmids hSTING(R232), hSTING(H232), hSTING(HAQ) were directly procured from Invivogen while hSTING (AQ) and hSTING (Q) were derived from hSTING(HAQ) and hSTING (R232) plasmids respectively by using a PCR based site directed mutagenesis method. These vectors were individually transfected into HEK293T cells using Lipofectamine (Invitrogen) and transfected cells were selected under Blasticidin selection. These transfected cells were further subjected to clonal selection using the limiting dilution method to obtain clonally pure populations of HEK cells transfected with each of the above mentioned human STING variants. Only those clones were selected in which ligand independent activation of STING was minimal. • b) Stable Luciferase reporter gene expressing cells—Stable HEK293T Luciferase reporter gene expressing cell lines were generated using pCDNA4 plasmids under an IRF-inducible promoter. This promoter is comprised of five tandem interferon-stimulated response elements (ISRE) fused to an ISG54 minimal promoter. This vector was transfected into HEK293T cells using Lipofectamine (Invitrogen) and transfected cells were selected under Zeocin selection. These transfected cells were further subjected to clonal selection using the limiting dilution method to obtain clonally pure populations of HEK cells transfected the Luciferase reporter construct. Only those clones were selected in which ligand independent induction of luciferase was minimal.
5×10^5 clonally selected HEK293T-hSTING-Luciferase cells were seeded in 384-well plates in growth medium and stimulated with novel compounds. After 20 hr of stimulation supernatant were removed and secretary reporter gene activity were measured using the Quanti-Luc detection system (Invivogen) on a Spectramax i3X luminometer.
In the tables below, EC50 value ranges for exemplary compounds are given.
All compounds were first tested in a primary screen to obtain a ‘fold-induction’ over baseline levels of protein activity.
In general terms: Reporter assays use an easily measured gene product as a stand-in for the process of interest.
As to `CN1Cc2ccc(C(=O)NCc3c(F)cc(F)cc3F)cc2N(Cc2ccccc2F)C1=O` [Example 12, 1-(2-fluorobenzyl)-3-methyl-2-oxo-N-(2,4,6-trifluorobenzyl)-1,2,3,4-tetrahydroquinazoline-7-carboxamide], the pEC50 (as a rule, −log10 of the EC50, conventionally taken in molar units) was above 6.00.
Regarding `Cc1cccc(CN2C(=O)N(C)Cc3ccc(C(=O)NCc4c(F)cc(F)cc4F)cc32)c1F` [Example 13, 1-(2-fluoro-3-methylbenzyl)-3-methyl-2-oxo-N-(2,4,6-trifluorobenzyl)-1,2,3,4-tetrahydroquinazoline-7-carboxamide], the pEC50 is above 6.00.
For `CN1Cc2ccc(C(=O)NCc3c(F)cc(F)cc3F)cc2N(Cc2cccc(C(N)=O)c2)C1=O` [Example 14, 1-(3-carbamoylbenzyl)-3-methyl-2-oxo-N-(2,4,6-trifluorobenzyl)-1,2,3,4-tetrahydroquinazoline-7-carboxamide], the pEC50 is 5.00 to 6.00.
As to `CC(C)N1Cc2ccc(C(=O)NCc3c(F)cc(F)cc3F)cc2N(Cc2cc(F)cc(F)c2)C1=O` [Example 15, 1-(3,5-difluorobenzyl)-3-isopropyl-2-oxo-N-(2,4,6-trifluorobenzyl)-1,2,3,4-tetrahydroquinazoline-7-carboxamide], the pEC50 is 5.00 to 6.00.
To `CN1Cc2ccc(C(=O)NCc3cc4ccccc4o3)cc2N(Cc2cc(F)cc(F)c2)C1=O` [Example 16, N-(benzofuran-2-ylmethyl)-1-(3.5-difluorobenzyl)-3-methyl-2-oxo-1,2,3,4-tetrahydroquinazoline-7-carboxamide] belongs 5.00 to 6.00; to `CN1Cc2ccc(C(=O)NCc3c(F)cc(F)cc3F)cc2N(Cc2ccc(F)cc2Cl)C1=O` [Example 17, 1-(2-chloro-4-fluorobenzyl)-3-methyl-2-oxo-N-(2,4,6-trifluorobenzyl)-1,2,3,4-tetrahydroquinazoline-7-carboxamide], 5.00 to 6.00.
As for `O=C(NCc1c(F)cc(F)cc1F)c1ccc2c(c1)N(Cc1cc(F)cc(F)c1)C(=O)NC2` [Example 18, 1-(3,5-difluorobenzyl)-2-oxo-N-(2,4,6-trifluorobenzyl)-1,2,3,4-tetrahydroquinazoline-7-carboxamide], the figure is 5.00 to 6.00; as for `CN1Cc2ccc(C(=O)NCc3c(F)cc(F)cc3F)cc2N(Cc2ccccc2Cl)C1=O` [Example 19, l-(2-chlorobenzyl)-3-methyl-2-oxo-N-(2,4,6-trifluorobenzyl)-1,2,3,4-tetrahydroquinazoline-7-carboxamide], 5.00 to 6.00; as for `O=C(NCc1c(F)cc(F)cc1F)c1ccc2c(c1)N(Cc1c(F)cccc1Cl)C(=O)N(c1ncccn1)C2` [Example 21, 1-(2-chloro-6-fluorobenzyl)-2-oxo-3-(pyrimidin-2-yl)-N-(2,4,6-trifluorobenzyl)-1,2,3,4-tetrahydroquinazoline-7-carboxamide], below 5.00.
To `COc1ccc2cc(CNC(=O)c3ccc4c(c3)N(Cc3c(F)cccc3Cl)C(=O)N(C)C4)oc2c1` [Example 22, 1-(2-chloro-6-fluorobenzyl)-N-((6-methoxybenzofuran-2-yl)methyl)-3-methyl-2-oxo-1,2,3,4-tetrahydroquinazoline-7-carboxamide] belongs below 5.00; to `CN1Cc2ccc(C(=O)NCc3cc4ccc(F)cc4o3)cc2N(Cc2c(F)cccc2Cl)C1=O` [Example 23, 1-(2-chloro-6-fluorobenzyl)-N-((6-fluorobenzofuran-2-yl)methyl)-3-methyl-2-oxo-1,2,3,4-tetrahydroquinazoline-7-carboxamide], 5.00 to 6.00; to `CN1Cc2ccc(C(=O)NCc3cc4cc(F)ccc4o3)cc2N(Cc2c(F)cccc2Cl)C1=O` [Example 24, 1-(2-chloro-6-fluorobenzyl)-N-((5-fluorobenzofuran-2-yl)methyl)-3-methyl-2-oxo-1,2,3,4-tetrahydroquinazoline-7-carboxamide], 5.00 to 6.00.
With `CN1Cc2ccc(C(=O)NCc3cccc(-c4ncco4)c3)cc2N(Cc2c(F)cccc2Cl)C1=O` [Example 25, 1-(2-chloro-6-fluorobenzyl)-3-methyl-N-(3-(oxazol-2-yl)benzyl)-2-oxo-1,2,3,4-tetrahydroquinazoline-7-carboxamide], the pEC50 was below 5.00.
Regarding `CN1Cc2ccc(C(=O)NCCn3cncn3)cc2N(Cc2c(F)cccc2Cl)C1=O` [Example 26, N-(2-(1H-1,2,4-triazol-l-yl)ethyl)-1-(2-chloro-6-fluorobenzyl)-3-methyl-2-oxo-1,2,3,4-tetrahydroquinazoline-7-carboxamide], the pEC50 was below 5.00.
For `CN1Cc2ccc(C(=O)NCc3cc4cc(O)ccc4o3)cc2N(Cc2c(F)cccc2Cl)C1=O` [Example 27, 1-(2-chloro-6-fluorobenzyl)-N-((5-hydroxybenzof uran-2-yl)methyl)-3-methyl-2-oxo-1.2,3,4-tetrahydroquin azoline-7-carboxamide], the pEC50 was 5.00 to 6.00.
Take `CN1Cc2ccc(C(=O)NCc3cccc(-c4ccn(C)n4)c3)cc2N(Cc2c(F)cccc2Cl)C1=O` [Example 28, 1-(2-chloro-6-fluorobenzyl)-3-methyl-N-(3-(1-methyl-1H-pyrazol-3-yl)benzyl)-2-oxo-1,2,3,4-tetrahydroquinazoline-7-carboxamide]: the pEC50 was below 5.00.
As for `CN1Cc2ccc(C(=O)NCc3cccc(-c4ccnn4C)c3)cc2N(Cc2c(F)cccc2Cl)C1=O` [Example 29, 1-(2-chloro-6-fluorobenzyl)-3-methyl-N-(3-(1-methyl-1H-pyrazol-5-yl)benzyl)-2-oxo-1,2,3,4-tetrahydroquinazoline-7-carboxamide], the figure is below 5.00; as for `CN1Cc2ccc(C(=O)NCc3ccccc3F)cc2N(Cc2c(F)cccc2Cl)C1=O` [Example 30, 1-(2-chloro-6-fluorobenzyl)-N-(2-fluorobenzyl)-3-methyl-2-oxo-1,2,3,4-tetrahydroquinazoline-7-carboxamide], 5.00 to 6.00.
As to `CN1CCN(c2cccc(CNC(=O)c3ccc4c(c3)N(Cc3c(F)cccc3Cl)C(=O)N(C)C4)c2)CC1` [Example 31], the pEC50 is below 5.00.
For `CN1Cc2ccc(C(=O)NCc3ccc4occc4c3)cc2N(Cc2c(F)cccc2Cl)C1=O` [Example 32, N-(benzofuran-5-ylmethyl)-1-(2-chloro-6-fluorobenzyl)-3-methyl-2-oxo-1,2,3,4-tetrahydroquinazoline-7-carboxamide], the pEC50 was 5.00 to 6.00.
Take `Cc1cc(CN2C(=O)N(C)Cc3ccc(C(=O)NCc4c(F)cc(F)cc4F)cc32)no1` [Example 33, 3-methyl-1-((5-methylisoxazol-3-yl)methyl)-2-oxo-N-(2,4,6-trifluorobenzyl)-1,2,3,4-tetrahydroquinazoline-7-carboxamide]: the pEC50 is 5.00 to 6.00.
For `Cn1cnc(N2Cc3ccc(C(=O)NCc4c(F)cc(F)cc4F)cc3N(Cc3c(F)cccc3Cl)C2=O)c1` [Example 34, 1-(2-chloro-6-fluorobenzyl)-3-(1-methyl-1H-imidazol-4-yl)-2-oxo-N-(2,4,6-trifluorobenzyl)-1,2,3,4-tetrahydroquinazoline-7-carboxamide], the pEC50 was below 5.00.
`CN1Cc2ccc(C(=O)NCc3c(F)cc(F)cc3F)cc2N(Cc2cnsn2)C1=O` [Example 35, l-((l,2,5-thiadiazol-3-yl)methyl)-3-methyl-2-oxo-N-(2,4,6-trifluorobenzyl)-1,2,3,4-tetrahydroquinazoline-7-carboxamide]: the pEC50 is below 5.00.
With `Cc1nc(CN2C(=O)N(C)Cc3ccc(C(=O)NCc4c(F)cc(F)cc4F)cc32)co1` [Example 36, 3-methyl-1-((2-methyloxazol-4-yl)methyl)-2-oxo-N-(2,4,6-trifluorobenzyl)-l,2,3,4-tetrahydroquinazoline-7-carboxamide], the pEC50 was below 5.00.
To `CN1Cc2ccc(C(=O)NCc3c(F)cc(F)cc3F)cc2N(Cc2cn(C)cn2)C1=O` [Example 37, 3-methyl-1-((1-methyl-1H-imidazol-4-yl)methyl)-2-oxo-N-(2,4,6-trifluorobenzyl)-1,2,3,4-tetrahydroquinazoline-7-carboxamide] belongs below 5.00; to `Cc1ccc(-c2nc(CN3C(=O)N(C)Cc4ccc(C(=O)NCc5c(F)cc(F)cc5F)cc43)c(C)o2)cc1` [Example 40, 3-methyl-1-((5-methyl-2-(p-tolyl)oxazol-4-yl)methyl)-2-oxo-N-(2,4,6-trifluorobenzyl)-1,2,3,4-tetrahydroquinazoline-7-carboxamide], below 5.00; to `COc1cccc(F)c1CNC(=O)c1ccc2c(c1)N(Cc1c(F)cccc1Cl)C(=O)N(C)C2` [Example 41, 1-(2-chloro-6-fluorobenzyl)-N-(2-fluoro-6-methoxybenzyl)-3-methyl-2-oxo-1,2,3,4-tetrahydroquinazoline-7-carboxamide], below 5.00.
To `Cc1oc(-c2ccc(F)cc2)nc1CN1C(=O)N(C)Cc2ccc(C(=O)NCc3c(F)cc(F)cc3F)cc21` [Example 42, l-((2-(4-fluorophenyl)-5-methyloxazol-4-yl)methyl)-3-methyl-2-oxo-N-(2,4,6-trifluorobenzyl)-1,2,3,4-tetrahydroquinazoline-7-carboxamide] belongs 5.00 to 6.00.
